The source of these data is US20150320692A1 (UNIWERSYTET LÓDZKI, priority 2012, published 2015).

This assay relates to CLL cells (leukemic lymphocytes). Kind of assay: Assessment of mitochondrial membrane potential (CMXRos, flow cytometry). The following applies: for mean percentage of cells with lower mitochondrial potential (ΔΨm^low/Gly-A^−): 1.6 μM. Format: cell-based, human. An excerpt: Mitochondrial membrane potential is an early indicator of apoptosis. CMXRos, i.e. Chloromethyl-X-rosamine (the reagent's name by Mito Tracker Red CMXRos, Molecular Probes, USA), and a monoclonal antibody to glycophorin A conjugated with FITC (the reagent's name of Anti-Glycophorin A FITC by Dako, Denmark) were used for its assessment. CMXRos is a lipophilic cationic dye that accumulates in the mitochondrial matrix of viable cells when there is an electronegative load on the inner surface of the mitochondrial membrane. This asymmetric location of protons along the inner mitochondrial membrane leads to a high mitochondrial membrane potential (ΔΨm) in living cells. A decreased mitochondrial potential ΔΨm is one of the first symptoms of apoptosis during the process of induction, which results in lowering of the mitochondrial uptake of CMXRos.
The stock CMXRos solution was prepared by dilution of the substance supplied by the manufacturer in 94 μl DMSO (dimethylsulphoxide), and stored at […]. Then working solution was prepared also using DMSO (1:10) and stored at 4° C. Mononuclear cells, i.e. leukemic lymphocytes, at 1×10^6 MNCs/ml concentration, were incubated with CMXRos (2.5 μl working solution in 500 μl RPMI 1640 medium) at 37° C. for 30 minutes. […] The samples were next measured using flow cytometry. The percentage of cells not bound to anti-glycophorin A-FITC (ΔΨm^low/Gly-A^− cells), with low mitochondrial potential, was calculated.
All fluorescence measurements were performed by a flow cytometer FACSCalibur (Becton Dickinson, USA) equipped with an argon laser 488 nm and computer program CellQuestPro (Becton Dickinson, USA). Each time 10 000 cells were evaluated. The fluorescence was measured using standard emission filters: green—FL1 (wavelength λ=530±20 nm) and red—FL3 (>600 nm).

Take `Nc1nc(F)nc2c1ncn2[C@@H]1O[C@H](CO)[C@@H](O)[C@@H]1O` [FA, fludarabine]: the “mean percentage of cells with lower mitochondrial potential (ΔΨm^low/Gly-A^−)” value is, setting by setting: (24 h) 52.05%; (48 h) 74.49%. Consider rituximab, for which the “apoptosis-inducing action (mitochondrial potential) compared with control” value (10 μg/ml, 24-hour cultures) is listed as “apoptosis-inducing action in order of spontaneous apoptosis”.
